Laboratory results from ChEMBL document CHEMBL4118068 (Eur J Med Chem, 2017).

What was measured:
[1] = target: T1, Muscarinic acetylcholine receptor M5 (Homo sapiens, UniProt P08912); test: Displacement of [3H]NMS from recombinant human muscarinic M5 receptor expressed in CHOK1 cell membranes after 120 mins by scintillation counting method
T1 sequence (P08912 whole entry): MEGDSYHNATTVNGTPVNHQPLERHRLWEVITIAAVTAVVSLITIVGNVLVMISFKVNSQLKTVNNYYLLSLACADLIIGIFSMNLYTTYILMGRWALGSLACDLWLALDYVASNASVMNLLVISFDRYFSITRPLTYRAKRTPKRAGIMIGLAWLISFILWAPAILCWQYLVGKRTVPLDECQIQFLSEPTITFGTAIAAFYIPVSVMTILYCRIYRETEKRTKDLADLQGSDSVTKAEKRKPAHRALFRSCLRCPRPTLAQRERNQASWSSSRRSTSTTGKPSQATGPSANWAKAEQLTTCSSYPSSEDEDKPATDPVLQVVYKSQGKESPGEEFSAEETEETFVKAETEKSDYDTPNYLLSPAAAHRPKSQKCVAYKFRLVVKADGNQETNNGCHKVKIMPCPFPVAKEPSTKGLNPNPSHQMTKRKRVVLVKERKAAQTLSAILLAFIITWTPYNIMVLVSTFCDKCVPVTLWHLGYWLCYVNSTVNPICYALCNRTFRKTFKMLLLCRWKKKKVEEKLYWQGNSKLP

[2] = target: Muscarinic acetylcholine receptor M3 (Homo sapiens, UniProt P20309); test: Displacement of [3H]NMS from recombinant human muscarinic M3 receptor expressed in CHOK1 cell membranes after 120 mins by scintillation counting method
Chain of Muscarinic acetylcholine receptor M3 (P20309 whole entry): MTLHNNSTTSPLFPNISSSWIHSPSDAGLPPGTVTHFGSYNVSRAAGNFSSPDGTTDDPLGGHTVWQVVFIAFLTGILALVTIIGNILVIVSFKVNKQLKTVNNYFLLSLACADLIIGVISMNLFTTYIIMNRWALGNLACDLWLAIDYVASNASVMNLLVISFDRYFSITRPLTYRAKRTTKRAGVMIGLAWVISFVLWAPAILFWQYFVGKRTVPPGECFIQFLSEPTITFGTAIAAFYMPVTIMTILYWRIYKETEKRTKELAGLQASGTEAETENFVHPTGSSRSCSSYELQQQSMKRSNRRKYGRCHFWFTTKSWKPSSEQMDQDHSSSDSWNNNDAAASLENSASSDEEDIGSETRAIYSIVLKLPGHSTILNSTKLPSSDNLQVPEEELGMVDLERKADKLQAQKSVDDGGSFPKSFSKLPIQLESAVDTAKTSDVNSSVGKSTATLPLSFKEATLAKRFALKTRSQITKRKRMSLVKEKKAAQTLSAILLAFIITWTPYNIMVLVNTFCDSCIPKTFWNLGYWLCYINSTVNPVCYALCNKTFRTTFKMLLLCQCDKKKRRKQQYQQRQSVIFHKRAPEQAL

[3] = target: T2, Muscarinic acetylcholine receptor M2 (Homo sapiens, UniProt P08172); test: Displacement of [3H]NMS from recombinant human muscarinic M2 receptor expressed in CHOK1 cell membranes after 120 mins by scintillation counting method
T2 sequence (P08172 whole entry): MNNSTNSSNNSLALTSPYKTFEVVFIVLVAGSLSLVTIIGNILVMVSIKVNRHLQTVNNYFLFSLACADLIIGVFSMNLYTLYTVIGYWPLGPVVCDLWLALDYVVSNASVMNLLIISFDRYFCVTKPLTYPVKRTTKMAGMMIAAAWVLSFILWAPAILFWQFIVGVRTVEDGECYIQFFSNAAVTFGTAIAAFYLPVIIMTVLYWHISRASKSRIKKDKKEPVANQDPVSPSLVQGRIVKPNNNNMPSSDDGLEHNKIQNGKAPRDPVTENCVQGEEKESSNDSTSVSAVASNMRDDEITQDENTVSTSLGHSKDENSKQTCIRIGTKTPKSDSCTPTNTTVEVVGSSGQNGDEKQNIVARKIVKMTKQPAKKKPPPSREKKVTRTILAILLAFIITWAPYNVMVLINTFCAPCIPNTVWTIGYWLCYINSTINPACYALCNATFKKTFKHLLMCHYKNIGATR

[4] = target: T3, Muscarinic acetylcholine receptor M4 (Homo sapiens, UniProt P08173); test: Displacement of [3H]NMS from recombinant human muscarinic M4 receptor expressed in CHOK1 cell membranes after 120 mins by scintillation counting method
T3 sequence (P08173 whole entry): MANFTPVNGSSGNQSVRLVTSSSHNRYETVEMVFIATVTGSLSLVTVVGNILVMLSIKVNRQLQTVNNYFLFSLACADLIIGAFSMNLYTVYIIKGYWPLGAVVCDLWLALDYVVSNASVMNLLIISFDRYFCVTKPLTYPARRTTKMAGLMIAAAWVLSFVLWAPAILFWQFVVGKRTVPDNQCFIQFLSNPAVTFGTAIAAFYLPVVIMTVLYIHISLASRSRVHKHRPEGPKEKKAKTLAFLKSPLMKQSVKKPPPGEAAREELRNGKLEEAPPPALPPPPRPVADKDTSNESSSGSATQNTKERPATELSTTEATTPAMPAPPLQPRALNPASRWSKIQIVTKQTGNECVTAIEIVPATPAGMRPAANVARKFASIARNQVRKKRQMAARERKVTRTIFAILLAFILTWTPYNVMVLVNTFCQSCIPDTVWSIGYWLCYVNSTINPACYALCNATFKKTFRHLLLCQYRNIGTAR

[5] = target: T4, Muscarinic acetylcholine receptor M1 (Homo sapiens, UniProt P11229); test: Displacement of [3H]NMS from recombinant human muscarinic M1 receptor expressed in CHOK1 cell membranes after 120 mins by scintillation counting method
T4 sequence (P11229 whole entry): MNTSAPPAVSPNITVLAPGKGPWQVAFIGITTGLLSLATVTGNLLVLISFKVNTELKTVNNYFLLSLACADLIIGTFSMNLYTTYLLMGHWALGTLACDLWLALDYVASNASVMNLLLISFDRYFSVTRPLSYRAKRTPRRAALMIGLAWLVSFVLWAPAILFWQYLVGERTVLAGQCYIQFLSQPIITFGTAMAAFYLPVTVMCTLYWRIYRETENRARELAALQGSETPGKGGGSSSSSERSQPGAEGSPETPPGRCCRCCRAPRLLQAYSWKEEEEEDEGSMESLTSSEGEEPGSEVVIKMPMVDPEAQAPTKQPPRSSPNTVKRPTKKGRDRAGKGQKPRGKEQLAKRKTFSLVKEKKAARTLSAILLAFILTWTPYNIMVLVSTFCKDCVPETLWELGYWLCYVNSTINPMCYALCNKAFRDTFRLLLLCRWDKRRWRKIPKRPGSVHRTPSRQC

Row | Compound | Ki [1] [nM] | Ki [2] [nM] | Ki [3] [nM] | Ki [4] [nM] | Ki [5] [nM]
1 | c1ccc(C2(c3ccccc3)COC[C@@H](CO[C@@H]3CN4CCC3CC4)O2)cc1 | 112 | 105 | 61.7 | 100 | 55
2 | c1ccc(C2(c3ccccc3)COC[C@H](CO[C@H]3CN4CCC3CC4)O2)cc1 | 45.7 | 43.7 | 57.5 | 22.9 | 8.91
3 | O=C(O[C@H]1CN2CCC1CC2)N1CCc2ccccc2[C@@H]1c1ccccc1 [SOLIFENACIN] | 43.7 | 13.2 | 120 | 129 | 51.3
4 | c1ccc(C2(c3ccccc3)COC[C@H](CO[C@@H]3CN4CCC3CC4)O2)cc1 | 19.1 | 20 | 33.1 | 11.5 | 4.57
5 | c1ccc(C2(c3ccccc3)COC[C@@H](CO[C@H]3CN4CCC3CC4)O2)cc1 | 631 | 617 | 355 | 437 | 162
